Series [1] relates to DNA synthesis in Nb2 node lymphoma cells. The experiment in a line: Inhibition of ongoing DNA synthesis in prolactin-stimulated Nb2 cells. Type of series: cell-based, rat. The settings on record: Nb2 cells stimulated with prolactin for 24 h. As for the experimental part: Also inhibitions of protein and DNA synthesis of several compounds were measured using Nb2 node lymphoma cells which were stimulated by a treatment of cells with prolactin. (ibid.)
^a Nb2 cells were stimulated with prolactin for 24 h, then exposed to
^b 50% Inhibitory concentration, calculated with linear regression

Series [2] deals with Nb2 cells, rat T-cell node lymphoma. The experiment in a line: Competitive binding with [3H]didemnin B to Nb2 cells. As to conditions: 3 h at 37° C. As for the experimental part: The immunosuppressive assay was performed by measuring competitive binding of tested compounds with [^3 H]didemnin B to Nb2 cells, rat T-cell node lymphoma. See, Russell, D. H., et al., J. Immunology, 1987, 138, 276-284.
^a Competing didemnins incubated with approximately 25 ng of [^3

The test system of series [3] is BHK = Baby hamster kidney cells.
The test system of series [4] is L1210 murine leukemia cells. As to conditions: Table 9.
Series [5] relates to cells of the VIV assay (not named).
The subject of a further series is Visna virus (VIV). Type of series: cell-based. Also noted: key to % Protection / VIV Protection: I, indeterminate.
For series [6], the system named is L1210.
The test system of series [7] is L1210. The experiment in a line: L1210 cytotoxicity, inhibition at fixed doses (Table 10). Type of series: cell-based, murine.

Values after ≈ are worked out from the molar mass of the structure shown. Read-outs that look alike come from different tables or passages of the source. Numbered stars: 1 amine (or outer) side, 2 acyl side, 3 side chain; on linkers, the order of the positions; unused ones are H or OH. Bridge positions count the residues as written; N and C are the ends. Square brackets hold non-standard residues; d marks the D form. Peptide text beside a SMILES is read from it. * marks the point of attachment. X1 = CC[C@H](C)[C@@H](N[*:1])[C@@H](O)CC(=O)O[C@H](C(=O)[C@H](C)C(=O)[*:2])C(C)C; NMeY = CN[C@@H](Cc1ccc(O)cc1)C(=O)O; dNMeL = CN[C@H](CC(C)C)C(=O)O; X5 = O=C(Cc1ccccc1)C(=O)*; Isobutyryl = CC(C)C(=O)*; Aze = O=C(O)[C@@H]1CCN1; Pyruvoyl = CC(=O)C(=O)*; Propionyl = CCC(=O)*

Turning to `CC[C@H](C)[C@H]1NC(=O)[C@@H](NC(=O)[C@@H](CC(C)C)NC)[C@@H](C)OC(=O)[C@H](Cc2ccc(OC)cc2)N(C)C(=O)[C@@H]2CCCN2C(=O)[C@H](CC(C)C)NC(=O)[C@@H](C)C(=O)[C@H](C(C)C)OC(=O)C[C@@H]1OC(C)=O` [O-Acetyldidemnin A (114), O-Acetyldidemnin A], the “IC50 DNA” value in series [1] is reported as 270,000 ng/mL. The “Inhibition of [3H]didemnin B binding (%)” value is on record as 1% in [2] (0.001 μg/mL), 4% in series [2] (0.01 μg/mL), 15% in series [2] (0.1 μg/mL) and 10% in series [2] (1 μg/mL). In addition, in series [3], the BHK is on record as 0, PT. Besides, the “Cytotoxicity L1210 IC50” value in series [4] was 300 ng/mL.

For `Cc1cn([C@H]2C[C@H](N=[N+]=[N-])[C@@H](CO)O2)c(=O)[nH]c1=O` [AZT, reference compound], the “% Cytotoxicity” value in series [5] (1 µM) is 5; in series [5] (3 µM), 7; in [5] (10 µM), 11; in series [5] (30 µM) it was 14.

Turning to `CC[C@H](C)[C@H]1NC(=O)[C@@H](NC(=O)[C@@H](CC(C)C)N(C)C(=O)[C@@H]2CCN2C(=O)C(C)=O)[C@@H](C)OC(=O)[C@H](Cc2ccc(OC)cc2)N(C)C(=O)[C@@H]2CCCN2C(=O)[C@H](CC(C)C)NC(=O)[C@@H](C)C(=O)[C@H](C(C)C)OC(=O)C[C@@H]1O` [Pyruv-Azt-DA, Pyruv-Azt Didemnin A] (Pyruvoyl-[Aze][dNMeL]T[X1]LP[NMeY](Me); ester 3-C), in the series with Visna virus (VIV), the “% Protection” value is recorded as “I”. The compound also registered an IC50 with L1210 cells of 0.6 ng/mL (≈ 0.547 nM). Further, in [5], the “% Cytotoxicity” value amounted to 77.

Turning to `CC[C@H](C)[C@H]1NC(=O)[C@@H](NC(=O)[C@@H](CC(C)C)N(C)C(=O)[C@@H]2CCCN2C(=O)C(C)O)[C@@H](C)OC(=O)[C@H](Cc2ccc(OC)cc2)N(C)C(=O)[C@@H]2CCCN2C(=O)[C@H](CC(C)C)NC(=O)[C@@H](C)C(=O)[C@H](C(C)C)OC(=O)C[C@@H]1O` (stereo partly shown) [Didemnin B (17), Didemnin B, reference compound], the “IC50 DNA” value in [1] was determined as 90 ng/mL (≈ 80.9 nM). This compound yielded an IC50 with L1210 cells of 0.5 ng/mL (≈ 0.449 nM). The “Inhibition of [3H]didemnin B binding (%)” value in series [2] (0.001 μg/mL) was found to be 3%; in [2] (0.01 μg/mL), 7%; in series [2] (0.1 μg/mL) it was 59%; in series [2] (1 μg/mL), 77%. Moreover, the “Cytotoxicity percent L1210 inhibition” value with L1210 [6] (dose 5 ng/mL) is given as 93%; in the series with L1210 [6] (dose 12.5 ng/mL), 95%; in the series with L1210 [6] (dose 25 ng/mL), 95%. The “Inhibition (%)” value in the series with L1210 [7] (dose 25 ng/mL, tested 4/18/1991) came out at 99%; in the series with L1210 [7] (dose 250 ng/mL, tested 4/18/1991) it was 99%. The “Cytotoxicity L1210 IC50” value in series [4] is given as 0.5 ng/mL.

Turning to `CC[C@H](C)[C@H]1NC(=O)[C@@H](NC(=O)[C@@H](CC(C)C)N(C)C(=O)[C@@H]2CCCN2)[C@@H](C)OC(=O)[C@H](Cc2ccc(OC)cc2)N(C)C(=O)[C@@H]2CCCN2C(=O)[C@H](CC(C)C)NC(=O)[C@@H](C)C(=O)[C@H](C(C)C)OC(=O)C[C@@H]1O` [N-(L-Pro)Didemnin A (100), N-(L-Prolyl) didemnin A] (H-P[dNMeL]T[X1]LP[NMeY](Me); ester 3-C), the “VIV Protection” value with Visna virus (VIV) is listed as less than 0. In addition, in series [3], the BHK is reported as 0, PT. Further, the “Cytotoxicity L1210 IC50” value in series [4] came to 4 ng/mL.

Consider `CC[C@H](C)[C@H]1NC(=O)[C@@H](NC(=O)[C@@H](CC(C)C)NC)[C@@H](C)OC(=O)[C@H](Cc2ccc(OC)cc2)N(C)C(=O)[C@@H]2CCCN2C(=O)[C@H](CC(C)C)NC(=O)[C@@H](C)C(=O)[C@H](C(C)C)OC(=O)C[C@@H]1O` [Didemnin A (1), Didemnin A, reference compound] (H-[dNMeL]T[X1]LP[NMeY](Me); ester 2-C), for which the “VIV Protection” value in the series on Visna virus (VIV) is less than 0. The “IC50 DNA” value in series [1] worked out at 2000 ng/mL (≈ 2120 nM). For the same compound, the “Inhibition of [3H]didemnin B binding (%)” value in [2] (0.001 μg/mL) was found to be 3%; in series [2] (0.01 μg/mL), 8%; in series [2] (0.1 μg/mL), 20%; in series [2] (1 μg/mL), 35%. Also, the “Cytotoxicity percent L1210 inhibition” value in the series with L1210 [6] (dose 5 ng/mL) was found to be 0%; in the series on L1210 [6] (dose 12.5 ng/mL) it was 19%; in the series with L1210 [6] (dose 25 ng/mL) it was 25%. Further, the “Inhibition (%)” value in the series on L1210 [7] (dose 25 ng/mL, tested 4/22/1990) amounted to 80%; with L1210 [7] (dose 250 ng/mL, tested 4/22/1990), 100%. Further, the “Cytotoxicity L1210 IC50” value in [4] turned out to be 30 ng/mL.

Consider `CCC(=O)N1CCC[C@H]1C(=O)N(C)[C@H](CC(C)C)C(=O)N[C@@H]1C(=O)N[C@H]([C@@H](C)CC)[C@@H](O)CC(=O)O[C@@H](C(C)C)C(=O)[C@H](C)C(=O)N[C@@H](CC(C)C)C(=O)N2CCC[C@H]2C(=O)N(C)[C@@H](Cc2ccc(OC)cc2)C(=O)O[C@@H]1C` [[Propionyl^9] Didemnin B (104), [Propionyl^9]didemnin B] (Propionyl-P[dNMeL]T[X1]LP[NMeY](Me); ester 3-C), for which the “VIV Protection” value with Visna virus (VIV) is reported as -113. The BHK in [3] is on record as 0, PT. Also, in series [4], the “Cytotoxicity L1210 IC50” value was determined as 0.2 ng/mL.

Take `COc1ccc(C[C@H]2C(=O)O[C@H](C)[C@H](NC(=O)C(CC(C)C)N(C)C(=O)[C@@H]3CCCN3C(=O)[C@H](C)O)C(=O)N[C@H](C(C)C)[C@@H](O)CC(=O)O[C@@H](C(C)C)C(=O)[C@H](C)C(=O)N[C@@H](CC(C)C)C(=O)N3CCC[C@H]3C(=O)N2C)cc1` (stereo partly shown) [Nordidemnin B (22), Nordidemnin B]: the “VIV Protection” value with Visna virus (VIV) is -25. Also, the BHK in series [3] was 0, PT. The “Cytotoxicity L1210 IC50” value in [4] was 1 ng/mL.

`CC[C@H](C)[C@H]1NC(=O)[C@@H](NC(=O)[C@@H](CC(C)C)N(C)C(=O)[C@@H](N)CC(C)C)[C@@H](C)OC(=O)[C@H](Cc2ccc(OC)cc2)N(C)C(=O)[C@@H]2CCCN2C(=O)[C@H](CC(C)C)NC(=O)[C@@H](C)C(=O)[C@H](C(C)C)OC(=O)C[C@@H]1O` [N-(L-Leu)Didemnin A (99), N-(L-Leu)didemnin A] (H-L[dNMeL]T[X1]LP[NMeY](Me); ester 3-C): the BHK in series [3] was 0, PT. The “Cytotoxicity L1210 IC50” value in series [4] worked out at 4 ng/mL.

Turning to `CC[C@H](C)[C@H]1NC(=O)[C@@H](NC(=O)[C@@H](CC(C)C)N(C)C(=O)[C@H]2CCCN2C(=O)C(C)C)[C@@H](C)OC(=O)[C@H](Cc2ccc(OC)cc2)N(C)C(=O)[C@@H]2CCCN2C(=O)[C@H](CC(C)C)NC(=O)[C@@H](C)C(=O)[C@H](C(C)C)OC(=O)C[C@@H]1O` [[Isobutyryl^9 -D-Pro^8]didemnin B] (Isobutyryl-[dP][dNMeL]T[X1]LP[NMeY](Me); ester 3-C), the “Inhibition of [3H]didemnin B binding (%)” value was determined as 0% in [2] (0.001 μg/mL), 0% in series [2] (0.01 μg/mL), 25% in series [2] (0.1 μg/mL) and 69% in series [2] (1 μg/mL). In addition, in series [3], the BHK was 0, PT. Moreover, the “Cytotoxicity L1210 IC50” value in series [4] is reported as 10 ng/mL.

Take `CC[C@H](C)[C@H]1NC(=O)[C@@H](NC(=O)[C@@H](CC(C)C)N(C)C(=O)[C@@H]2CCCN2C(=O)C(=O)Cc2ccccc2)[C@@H](C)OC(=O)[C@H](Cc2ccc(OC)cc2)N(C)C(=O)[C@@H]2CCCN2C(=O)[C@H](CC(C)C)NC(=O)[C@@H](C)C(=O)[C@H](C(C)C)OC(=O)C[C@@H]1O` [Phepyruv-Pro-DA, PhePyruv-Pro Didemnin A] (X5-P[dNMeL]T[X1]LP[NMeY](Me); ester 3-C): in the series with Visna virus (VIV), the “% Protection” value is listed as “I”. In addition, in the series with L1210 cells, the IC50 amounted to 3.5 ng/mL (≈ 2.95 nM) and the “cytotoxicity compared with DDB” value is given as “only partially active”.

What is called IC50 is the concentration that inhibits the measured activity by half.
